# Laboratory results reported in patent US20240239806A1, “COMPOUNDS, COMPOSITIONS AND METHODS OF TREATING DISORDERS” (Chengdu Anticancer Bioscience, Ltd., priority 2021, published 2024).
# “Also recorded” adds a separate entry of the source.
# Legend:
# Type in all cases: cell-based
# [1] = test system: human lung cancer cell line NCI-H23; test: Colony formation assay of long-term effect; conditions: exposed for three days, drug-free medium until 12 days; compared with AZD1152
# Description: Acute cytotoxicity immediately determined after short-term exposure to antimitotic agents often underestimates their potency, because some cancer cells might not die quickly after suffering mitotic defects such as an arrest in mitosis or a cytokinetic failure. Instead, after exposed to antimitotic agents, cells might face multiple possibilities that adversely affect their viability and proliferation in long-term such as permanent arrest of proliferation due to the development of senescence and nonapoptotic cell death by excessive autophagy. Only a small fraction of cells pretreated with an antimitotic agent might resume proliferation and divide to generate viable daughter cells that form colonies. Assay of the ability of cells to form colonies after being exposed to an anticancer agent for a short period of time represents a more accurate approach to document the potency of antimitotic agents. The human lung cancer cell line NCI-H23 in sub-confluence was exposed to compounds #7, #36, and #39 for three days and then transferred to drug-free fresh medium once every 3 days until 12 days after the initiation of treatment. At the end point, cells were photographed after fixed and stained with crystal violet.
# NCI-H596 = test: MTT assay of cellular proliferation; conditions: Homo sapiens, 50% inhibition of cellular proliferation
# Procedure, shortened: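 EC50 for 50% growth inhibition came from MTT formazan absorbance at 570 nm after 3–4 h dye incubation. Beforehand, cells grown to 20–30% confluence (15–24 h) in DMEM/5% FBS were treated with compound over 1 nM–30 μM.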
# Human Cancer Cells = test: Anchorage-independent growth in 3D culture (FIG. 3); conditions: FIG. 3 legend, cell line not named
# Description: Measuring the ability of cells to grow in soft agar has been popularly believed as the gold standard assay for cellular transformation in vitro. In the Soft Agar Assay, cells grow from single cells to cell colonies in a semi-solid agar solution that keeps them away from the solid surface and allows growth in an anchorage-independent way.
# The anchorage-independent growth of cells is one of the hallmarks of cancer cells. Normal epithelial cells are supported by basement membranes that provide survival and proliferative signals while undergo a type of apoptosis called anoikis when lose their attachment to the extracellular matrix. Cancer cells, in contrast, evade detachment-induced apoptosis, leading to uncontrolled proliferation and metastasis. The Soft Agar Colony Formation Assay allows testing of the therapeutic efficacy of compounds against anchorage-independent 3D growth of cancer cells in vin. The assay was performed in 6-well plates with two layers of agar. For the first, 0.75% agar in DMEM medium was melted in a microwave oven and poured to form a bottom layer. Once solidified, 10-100K cells in 1 ml of DMEM containing 0.35% agar was added to form the top layer, which was later covered with 0.5 ml of DMEM. Cell culture medium was changed once every two days until colonies were ready to photograph. We test the antitumor activity of select compounds in soft agar colony formation assays. […] The suppression of growth of these three cancer cell lines in 3D culture is consistent with the potent impact of these compounds on cellular proliferation in 2D culture.
# SW480 = test: MECP in cancer cell line; conditions: Homo sapiens
# Procedure, shortened: (§1)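 Potency reported in bins: A 1 nM-1.0 μM, B to 10.0 μM, C to 30.0 μM, D above 30.0 μM. Compounds (1 nM-30 μM) applied to cells in DMEM/5% FBS; imaging-based readout at 24-72 h of mitotic index (raised at 24 h) and polyploidy (48 h), marking cytokinetic failure.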
# A549 = test: MECP in cancer cell line; conditions: Homo sapiens
# Procedure, shortened: as §1
Structure (SMILES),long-term proliferative potential of NCI-H23 cells (colony formation) [1],EC50 (NCI-H596) [nM],Anchorage-independent Growth of Human Cancer Cells in 3D Culture (Human Cancer Cells),minimal effective concentration (SW480) [µM],minimal effective concentration (A549) [µM]
"COc1cc(OC)cc(Oc2ccnc3ccccc23)c1 [Compound 7, 4-(3,5-dimethoxyphenoxy)quinoline]",Suppress the Long-Term Proliferative Potential; also recorded: inhibited the long-term proliferative potential,1000 to 10000,Suppress the Anchorage-independent Growth,,
COC(=O)c1cc(OC)cc(Oc2ncnc3cc(OC)c(OC)cc23)c1 [Compound 29],,1 to 1000,,1 to 10,1 to 10
"COC(=O)c1cc(OC)cc(Oc2ncnc3cc[nH]c23)c1 [Compound 34, methyl 3-((5H-pyrrolo[3,2-d]pyrimidin-4-yl)oxy)-5-methoxybenzoate]",,1 to 1000,,0.001 to 1,1 to 10
"COC(=O)c1cc(Oc2ncnc3cc[nH]c23)cc(C(=O)OC)c1 [Compound 36, dimethyl 5-((5H-pyrrolo[3,2-d]pyrimidin-4-yl)oxy)isophthalate]",Suppress the Long-Term Proliferative Potential; also recorded: inhibited the long-term proliferative potential,1 to 1000,Suppress the Anchorage-independent Growth,,1 to 10
"COC(=O)c1cc(OC)cc(Oc2ncnc3ccsc23)c1 [Compound 37, methyl 3-methoxy-5-(thieno[3,2-d]pyrimidin-4-yloxy)benzoate]",,1 to 1000,,0.001 to 1,1 to 10
"COC(=O)c1cc(Oc2ncnc3ccsc23)cc(C(=O)OC)c1 [Compound 39, dimethyl 5-(thieno[3,2-d]pyrimidin-4-yloxy)isophthalate]",Suppress the Long-Term Proliferative Potential; also recorded: inhibited the long-term proliferative potential,> 30000,Suppress the Anchorage-independent Growth,,1 to 10
